Tests used:
[1] = tested on: splenocytes; experiment: Proliferation assay (MTS) of conA-stimulated splenocytes isolated from THC-treated mice; assay type: cell-based, mouse; conditions: cells from THC-treated vs untreated apoE−/− mice, conA 72 hours
Protocol: Proliferation Assay: Splenocytes (SC) or lymph node cells (LNC) were isolated from THC- or milk-treated mice and cultured in 96-well plates at a concentration of 5×10^6 cells/ml. Culture medium consisted of RPMI 1640 supplemented with 25 mM HEPES buffer, 2 mM L-glutamine, 100 U/ml penicillin, 0.1 mg/ml streptomycin, and 10% heat-inactivated fetal bovine serum (FBS). Cells were stimulated in triplicates with varying concentrations of concanavalin (con A; Sigma). After 72 hours, cell proliferation was determined using a non-radioactive MTS cell proliferation assay (Promega) according to the manufacturer's guidelines.

[2] = Blood analysis (cholesterol, triglyceride), body weight and tolerability in THC-treated apoE−/− mice
Protocol: The anti-atherosclerotic potential of THC was tested in the apolipoprotein E^−/− (apoE^−/−) mouse model of atherosclerosis. The studies presented herein utilized delta-9-Tetrahydrocannoabinol (THC), the major component of marijuana, as its immune-modulating effects have been well-documented in several studies. (See e.g., Srivastava, Immuopharmacology 40, 179-85 (1998); Zhu, J Immunol 165, 373-80 (2000); Yuan J Neuroimmunol 133, 124-31 (2002); Lyman, J Neuroimmunol 23, 73-81 (1989); Malfait, Proc Natl Acad Sci USA 97, 9561-6 (2000)). In addition, this compound is already commercially available, for example as an anti-vomiting drug or for use in treating anorexia. Since potential novel anti-inflammatory therapies should be well tolerated and preferably devoid of psychotropic effects, a low dosage of THC (e.g., 1 mg/kg) was used for daily oral administration. […] (Chesher, et al., Pharmacol Biochem Behav 35:861-4 (1990); Brenneisen, et al., Int J Clin Pharmacol Ther 34, 446-52 (1996); Chan, et al., Fundam Appl Toxicol 30, 109-17 (1996)) To test the therapeutic effect of THC on established atherosclerosis, apoE^−/− mice were fed with a high cholesterol diet for 5 weeks, and THC was then administered during the following 6 weeks, while maintaining the cholesterol diet.
Animals: As a model of in vivo atherosclerosis, 10-week old male apolipoprotein E^−/− mice (apoE^−/−) C57BL/6 mice were used. For histological and atherosclerotic plaque development analysis, mice were fed with a high cholesterol diet (1.25% cholesterol, 0% cholate; Research Diets, New Brunswick N.J., USA) for 5 weeks or for 11 weeks (n=6 per group). THC was administered during the last 6 weeks of the 11 week diet group. In parallel, control mice (littermates) received milk without THC (n =8). For proliferation and cytokine analysis, littermate apoE^−/− mice were divided into 2 groups (control, THC; n=6 per group) and fed with a high cholesterol diet for 4 weeks. THC or milk only was administered during the last 2 weeks of diet. All animal studies were approved by the local Ethical Committee.
Blood Analysis: For measurements of cholesterol and triglyceride content, blood samples were collected at the beginning and the end of the diet. HDL and VLDL cholesterol fractions of sera were measured by fast protein lipid chromatography. THC levels in blood (after 2, 4 and 6 weeks of treatment) were measured by gas chromatography/mass spectrometry with a limit of detection of […] as previously described. (Giroud, et al. Forensic Sci Int 123, 159-64 (2001)).

[3] = tested on: Th1 (IFN-γ, IL-12) and Th2 (IL-4, IL-10) cytokines, TGF-β; experiment: Cytokine analysis by ELISA in culture supernatants of conA-stimulated lymphoid cells from THC-treated mice; assay type: cell-based, mouse
[4] = tested on: apolipoprotein E−/− (apoE−/−) mouse model of atherosclerosis; experiment: Atherosclerotic lesion size quantification in apoE−/− mice on high cholesterol diet (Sudan IV staining); assay type: in vivo; conditions: 11 weeks high cholesterol diet, THC 1 mg/kg daily orally during last 6 weeks, vs control mice
Protocol: (§1) Reagents: Synthetic delta-9-THC Marinol® (Dronanbinol, Unimed Pharmaceuticals, Inc.; Marietta Ga., USA) was dissolved at 0.1 mg/ml in 5.5.% fat milk (w/v) in water. THC (1 mg/kg per day) in 1.5% fat milk (w/v) was administered orally within drinking water. Delta-9-THC for in vitro experiments was purchased as a stock solution of 1 mg/ml in methanol (Cambridge Isotype Laboratories, Andover Mass., USA) and were further diluted in warm medium immediately before use. For in vitro transmigration assays, all experiments were performed by adding corresponding dilutions of the THC vehicle (methanol) to the non-THC-treated controls.
Atherosclerotic lesion size quantification: Atherosclerotic lesions within the thoraco-abdominal aorta and aortic roots were analyzed by Sudan IV staining for lipid deposition. Quantification was performed by computer image analysis using the MetaMorph6 software (Zeiss, Feldbach, Switzerland) as previously described. (Kwak et al., Circulation 107, 1033-9 (2003)).

[5] = tested on: thioglycollate-elicited peritoneal macrophages from apoE−/− mice; experiment: Transmigration assay: chemo-attraction of peritoneal macrophages to MCP-1; assay type: cell-based, mouse; conditions: THC 0.6 ng/ml, 4 hours with 1 ng/ml mIFN-γ, 1 nM MCP-1, 90 minutes
Description: Early processes of atherosclerosis involve endothelial dysfunction in response to cardiovascular risk factors, which triggers the recruitment of leukocytes (monocytes/macrophages and T lymphocytes) into the vessel wall. The studies described herein address whether treatment with THC inhibited cell migration using a functional in vitro experiment. Thioglycollate-stimulated peritoneal mouse macrophages were isolated from apoE^−/− mice and assayed for their migration capacity by chemo-attraction to MCP-1.
as §1, with “For in vitro transmigration assays, all experiments were performed by adding corresponding dilutions of the THC vehicle (methanol) to the non-THC-treated controls.” left out
Transmigration assay: Macrophages from the peritoneal cavity of thioglycollate-injected apoE^−/− mice were isolated 4 days post-injection and stimulated (in triplicates) for 4 hours with 1 ng/ml mIFN-γ in the presence or absence of 0.6 ng/ml THC (n=4 mice). […] Following 90 minutes of incubation, the number of migrated cells was determined by counting (blind observers) 10 microscopic fields per well.

[6] = THC levels in blood serum of THC-treated mice (gas chromatography/mass spectrometry); assay type: in vivo, mouse; conditions: apoE−/− mice, THC 1 mg/kg per day orally
Protocol: as §1

[7] = tested on: murine collagen-induced arthritis, a mouse model of rheumatoid arthritis; conditions: cited from earlier work
[8] = THC 1 mg/kg per day orally, apoE−/− mice
[9] = THC-treated vs control apoE−/− mice
[10] = THC-treated vs untreated mice, conA 2 μg/ml, supernatant 48 hours, ELISA

Compound | proliferative responses of in vitro stimulated splenocytes [1] | deaths during treatment [2, 8] | unhealthy behavior [2, 8] | body weights [2, 9] | serum cholesterol levels [2, 9] | serum triglyceride levels [2, 9] | IL-4 expression ([3]; THC-treated mice, conA-stimulated cells, ELISA) | IL-12 expression ([3]; THC-treated mice, conA-stimulated cells, supernatant 48 hours, ELISA) | Th1/Th2 balance (ratio of IFN-γ to IL-10 concentration) ([3]; THC-treated vs untreated mice) | IFN-γ production [3, 10] | TGF-β production [3, 10] | IL-10 production ([3]; THC-treated vs untreated mice, conA 2 μg/ml, supernatant 72 hours, ELISA) | progression of atherosclerotic lesions within the aortic roots [4] | migration of macrophages [5] | THC concentration in blood serum [6] | proliferation and IFN-γ production of lymph node cells from treated mice (Th1 responses) ([7]; collagen-induced arthritis mice) | chronic inflammation in collagen-induced arthritis ([7]; mouse model of rheumatoid arthritis)
CCCCCc1cc(O)c2c(c1)OC(C)(C)C1CCC(C)=CC21 (centres unmarked) [THC, delta-9-tetrahydrocannabinol] | significantly reduced | None of the THC-treated mice died during treatment | none showed unhealthy behavior | No differences | No differences | No differences | neither expression of IL-4 nor IL-12 was detectable | neither expression of IL-4 nor IL-12 was detectable | shift of the Th1/Th2 balance | significantly less | modest, but not significant, downregulation | modest, but not significant, downregulation | significantly reduced progression of atherosclerotic lesions | significantly inhibited | 0.6 ng/mL |  | 
C=C(C)[C@@H]1CCC(C)=C[C@H]1c1c(O)cc(CCCCC)cc1O [cannabidiol] |  |  |  |  |  |  |  |  |  |  |  |  |  |  |  | reduced | ameliorated chronic inflammation
